In patent publication US20090247579A1, “2-[3H-THIAZOL-2-YLIDINEMETHYL]PYRIDINES AND RELATED COMPOUNDS AND THEIR USE” (CANCER RESEARCH TECHNOLOGY LIMITED, priority 2006, published 2009):
Where “and” joins values, the source holds several entries; their conditions need not be identical. Identical values can stand only once. Like-named read-outs stand apart in the source and are kept apart here.

What was measured:
[1] = tested on: HCT15 (MSH6); experiment: Modified MTT assay, colon panel HCT15; type: cell-based
Experimental: (§1) Relative drug sensitivities (Resistance Factor) and IC50 values were determined by a modified MTT assay (see, e.g., Mosmann, 1983; Plumb et al., 1989), as described below: • (1) Trypsinise a sub-confluent monolayer culture and collect cells in growth medium containing serum. Centrifuge the suspension (200 g, 5 minutes) to pellet cells, re-suspend in growth medium, and count cells. Dilute cells to a density of 5×10^3 cells/mL allowing 60 mL of cell suspension for 3 microtitre plates. Transfer cell suspension to a 10 cm petri dish, and with a multichannel pipette add 200 μL to each well of the central 10 columns of a flat bottomed 96-well plate (80 wells per plate) starting with column 2 and ending with column 11. Add 200 μL of growth medium to the 8 wells in columns 1 and 12. […] Glycine buffer is added (25 μL per well) to all wells containing DMSO. • (8) Absorbance is recorded at 570 nm with the wells in column 1, which contained medium and MTT but no cells used as a blank. • (9) A graph is plotted of absorbance (y-axis) against drug concentration (x-axis). The mean absorbance reading from the wells in columns 2 and 11 is used as the control absorbance and the IC50 concentration is determined as the drug concentration required to reduce the absorbance to half that of the control. IC10 or IC90 values can be determined in the same manner. […]

[2] = tested on: HT29; experiment: Modified MTT assay, colon panel HT29; type: cell-based
Experimental: as §1

[3] = tested on: DU145; experiment: Cancer cell line panel, DU145 (prostate); type: cell-based
Experimental: as §1

[4] = tested on: BE; experiment: Modified MTT assay, colon panel BE; type: cell-based
Experimental: as §1

[5] = tested on: HCT116 (MLH1); experiment: Modified MTT assay, colon panel HCT116; type: cell-based, human
Experimental: as §1

[6] = tested on: DLD1 (MSH6); experiment: Modified MTT assay, colon panel DLD1; type: cell-based
Experimental: as §1

[7] = tested on: RKO (MLH1); experiment: Modified MTT assay, colon panel RKO; type: cell-based
Experimental: as §1

[8] = tested on: A2780/cp70; experiment: Modified MTT assay, A2780/cp70 (cisplatin resistant, MMR deficient); type: cell-based, human; settings: 24 hour drug exposure; for IC50: MTT; for A2780/cp70 RF (Resistance Factor): fold difference in resistance from parental A2780
Experimental: (§2) Relative drug sensitivities (Resistance Factor) and IC50 values were determined by a modified MTT assay (see, e.g., Mosmann, 1983; Plumb et al., 1989), as described below: • (1) Trypsinise a sub-confluent monolayer culture and collect cells in growth medium containing serum. Centrifuge the suspension (200 g, 5 minutes) to pellet cells, re-suspend in growth medium, and count cells. Dilute cells to a density of 5×10^3 cells/mL allowing 60 mL of cell suspension for 3 microtitre plates. Transfer cell suspension to a 10 cm petri dish, and with a multichannel pipette add 200 μL to each well of the central 10 columns of a flat bottomed 96-well plate (80 wells per plate) starting with column 2 and ending with column 11. Add 200 μL of growth medium to the 8 wells in columns 1 and 12. Put the plates in a plastic box and incubate in a humidified atmosphere at 37° C. for 2-3 days so that cells are in the exponential phase of growth for drug addition. • (2) Prepare a serial 5-fold dilution of the cytotoxic drug in growth medium to give 8 concentrations. Pipette 6 mL of growth medium in to each of 7 universal containers (30 mL). Prepare 10 mL of the highest concentration of the drug and transfer 1.5 mL of this solution to the first universal container. Mix and then transfer 1.5 mL to the next universal container. Continue until the seventh universal container is reached. The concentrations should be chosen so that the highest concentration kills most of the cells and the lowest kills none of the cells. Normally, three plates are used for each drug to give triplicate determinations within one experiment. • (3) The medium is removed from all the wells in columns 2 to 11. This can be achieved with a hypodermic needle attached to a suction line. Cells in the 8 wells in columns 2 and 11 are fed with 200 μL of fresh growth medium. The drug solutions are transferred to 10 cm petri dishes and 200 μL added to all 8 wells of a column. For ease of analysis arrange the drug solutions in order so that the highest is in column 3 down to the lowest in column 10. Plates are returned to the plastic box and incubated for 24 hours. • (4) At the end of the drug exposure period, the medium is removed from all wells containing cells and the cells are fed with 200 μL of fresh medium. • (5) The plates are fed daily for two more days. • (6) The plates are fed with 200 μL of fresh medium and 50 μL of the MTT solution (5 mg/mL in PBS) is added to all wells in columns 1 to 11. Plates are wrapped in aluminium foil and incubated for 4 hours in a humidified atmosphere at 37° C. • (7) The medium and MTT are then removed from the wells and the purple MTT-formazan crystals dissolved by addition of 200 μL of DMSO to all wells in columns 1 to 11. Glycine buffer is added (25 μL per well) to all wells containing DMSO. • (8) Absorbance is recorded at 570 nm with the wells in column 1, which contained medium and MTT but no cells used as a blank. • (9) A graph is plotted of absorbance (y-axis) against drug concentration (x-axis). The mean absorbance reading from the wells in columns 2 and 11 is used as the control absorbance and the IC50 concentration is determined as the drug concentration required to reduce the absorbance to half that of the control. IC10 or IC90 values can be determined in the same manner.
A2780/cp70 and A2780/mcp1 have lost expression of MLH1, have lost MMR activity, and have microsatellite instability compared to A2780. The CpG island at the MLH1 gene is methylated in A2780/cp70 and A2780/mcp1, but not A2780.
IC50 values (μM) for A2780, A2780/cp70, and A2780/mcp1 and Resistance Factors (RF) (the fold difference in resistance from parental A2780) were determined based on the MTT assay described above for several compounds of the present invention (including, e.g., MMR201).

[9] = tested on: SKMES; experiment: Cancer cell line panel, SKMES (NSCLC); type: cell-based
Experimental: as §1

[10] = tested on: A375; experiment: Cancer cell line panel, A375 (melanoma); type: cell-based
Experimental: as §1

[11] = tested on: OVCAR5; experiment: Cancer cell line panel, OVCAR5 (ovary); type: cell-based
Experimental: as §1

[12] = tested on: COLO320DM; experiment: Modified MTT assay, colon panel COLO320DM; type: cell-based
Experimental: as §1

[13] = tested on: T47D; experiment: Cancer cell line panel, T47D (breast); type: cell-based
Experimental: as §1

[14] = tested on: A1 (MLH1+ve, MMR proficient); experiment: Modified MTT assay, A1 line (A2780/cp70 + chromosome 3, MLH1 +ve); type: cell-based, human
Experimental: as §2
(§3) A1, E1, and A2 are derived by transfer of human chromosome 3 into A2780/cp70. MLH1 is located on chromosome 3.
(§4) IC50 values (μM) for A1 (MLH1+ve, MMR proficient) or E1 (MLH1+ve, MMR proficient) and A2 (MLH1−ve, MMR deficient) lines and Resistance Factors (RF) (the fold difference in resistance between the A2 line, MMR deficient, and the A1 line, MMR proficient) were determined based on the MTT assay described above for several compounds of the present invention (including, e.g., MMR201). Compounds showing increased activity against the MLH1 deficient A2 line compared to the MLH1 proficient A1 or E1 line have RF values less than 1.

[15] = tested on: A2 (MLH1−ve, MMR deficient); experiment: Modified MTT assay, A2 line (A2780/cp70 + chromosome 3, MLH1 -ve); type: cell-based, human; settings: for IC50: A2 line; for RF (Resistance Factor): fold difference in resistance between A2 (MMR deficient) and A1 (MMR proficient)
Experimental: as §2, §3, §4

[16] = read-out: Cisplatin IC50, MMR proficient, p53 mut

`N.N.[Cl][Pt][Cl]` [Cisplatin, reference compound] was tested, and the IC50 ([1]; read-out: Cisplatin IC50, MMR deficient, p53 wt/mut) was 2920 ± 20 nM, the IC50 [2, 16] was 5670 ± 640 nM and the IC50 ([3]; read-out: Cisplatin) was 1680 ± 40 nM. The IC50 ([4]; read-out: Cisplatin IC50, MMR status unknown, p53 ?) was 8670 ± 1420 nM, the IC50 ([5]; read-out: Cisplatin IC50, MMR deficient, p53 wt) was 2130 ± 30 nM and the IC50 ([6]; read-out: Cisplatin IC50, MMR deficient, p53 mut) was 1670 ± 30 nM. For the same compound, the IC50 ([7]; read-out: Cisplatin IC50, MMR deficient) was 4010 ± 100 nM, the IC50 [8] was 1740 nM and 1680 nM and the “A2780/cp70 RF (Resistance Factor)” value [8] was 8.1 and 6.9. For the same compound, the IC50 ([9]; read-out: Cisplatin) was 5160 ± 80 nM, the IC50 ([10]; read-out: Cisplatin) was 613 ± 51 nM and the IC50 ([11]; read-out: Cisplatin) was 1780 ± 100 nM. The IC50 [12, 16] was 2900 ± 290 nM, the IC50 ([13]; read-out: Cisplatin) was 5420 ± 220 nM and the IC50 ([14]; read-out: A1 or E1 MLH1 +ve MMR proficient IC50) was 715 ± 69 nM. The IC50 [15] was 1900 ± 87 nM and the “RF (Resistance Factor)” value [15] was 2.7.

`CC[n+]1c(/C=C2\Sc3oc4ccccc4c3N2C)ccc2cc(C)ccc21.[I-]` [MMR201] gave an IC50 ([1]; Homo sapiens, HCT-15, MMR deficient, p53 wt/mut, read-out: MMR201 IC50) of 584 ± 55.1 nM, an IC50 ([2]; Homo sapiens, HT-29, MMR proficient, p53 mut, read-out: MMR201 IC50) of 118 ± 9.1 nM and an IC50 ([3]; Homo sapiens, DU-145, read-out: MMR201) of 328 ± 7.8 nM. The IC50 ([4]; MMR status unknown, p53 ?, read-out: MMR201 IC50) was 125 ± 17.3 nM, the IC50 ([5]; Homo sapiens, HCT-116, MMR deficient, p53 wt, read-out: MMR201 IC50) was 37.9 ± 3.1 nM and the IC50 ([6]; Homo sapiens, DLD-1, MMR deficient, p53 mut, read-out: MMR201 IC50) was 186 ± 8.3 nM. The IC50 ([7]; MMR deficient, read-out: MMR201 IC50) was 27.2 ± 0.7 nM, the IC50 ([8]; Homo sapiens, A2780/CP70) was 17 ± 1 nM and the “A2780/cp70 RF (Resistance Factor)” value [8] was 0.29. For the same compound, the IC50 ([9]; read-out: MMR201) was 398 ± 61.9 nM, the IC50 ([10]; Homo sapiens, A-375, read-out: MMR201) was 118 ± 17.7 nM and the IC50 ([11]; Homo sapiens, OVCAR-5, read-out: MMR201) was 699 ± 54.6 nM. For the same compound, the IC50 ([12]; Homo sapiens, COLO 320DM, MMR proficient, p53 mut, read-out: MMR201 IC50) was 594 ± 28.5 nM, the IC50 ([13]; Homo sapiens, read-out: MMR201) was 319 ± 26 nM and the IC50 ([14]; Homo sapiens, A2780/CP70, read-out: A1 or E1 MLH1 +ve MMR proficient IC50) was 121 ± 18 nM. The IC50 ([15]; Homo sapiens, A2780/CP70) was 23 ± 1 nM and the “RF (Resistance Factor)” value [15] was 0.19.
